{"source": "paper PMC4841942", "about": "(Cell chemical biology, 2016)", "molecules": {"B1": {"name": "p47: recombinant p97 cofactor protein with N-terminal hexahistidine tag (protein)", "chain": "MAAERQEALREFVAVTGAEEDRARFFLESAGWDLQIALASFYEDGGDEDIVTISQATPSSVSRGTAPSDNRVTSFRDLIHDQDEDEEEEEGQRFYAGGSERSGQQIVGPPRKKSPNELVDDLFKGAKEHGAVAVERVTKSPGETSKPRPFAGGGYRLGAAPEEESAYVAGEKRQHSSQDVHVVLKLWKSGFSLDNGELRSYQDPSNAQFLESIRRGEVPAELRRLAHGGQVNLDMEDHRDEDFVKPKGAFKAFTGEGQKLGSTAPQVLSTSSPAQQAENEAKASSSILIDESEPTTNIQIRLADGGRLVQKFNHSHRISDIRLFIVDARPAMAATSFILMTTFPNKELADESQTLKEANLLNAVIVQRLT", "modifications": "left off: His6, N-terminal, state not stated"}}, "key": {"p97 WT [1]": {"biological_target": "T1, p97 WT (Homo sapiens, UniProt P55072)", "T1 sequence (P55072 whole entry)": "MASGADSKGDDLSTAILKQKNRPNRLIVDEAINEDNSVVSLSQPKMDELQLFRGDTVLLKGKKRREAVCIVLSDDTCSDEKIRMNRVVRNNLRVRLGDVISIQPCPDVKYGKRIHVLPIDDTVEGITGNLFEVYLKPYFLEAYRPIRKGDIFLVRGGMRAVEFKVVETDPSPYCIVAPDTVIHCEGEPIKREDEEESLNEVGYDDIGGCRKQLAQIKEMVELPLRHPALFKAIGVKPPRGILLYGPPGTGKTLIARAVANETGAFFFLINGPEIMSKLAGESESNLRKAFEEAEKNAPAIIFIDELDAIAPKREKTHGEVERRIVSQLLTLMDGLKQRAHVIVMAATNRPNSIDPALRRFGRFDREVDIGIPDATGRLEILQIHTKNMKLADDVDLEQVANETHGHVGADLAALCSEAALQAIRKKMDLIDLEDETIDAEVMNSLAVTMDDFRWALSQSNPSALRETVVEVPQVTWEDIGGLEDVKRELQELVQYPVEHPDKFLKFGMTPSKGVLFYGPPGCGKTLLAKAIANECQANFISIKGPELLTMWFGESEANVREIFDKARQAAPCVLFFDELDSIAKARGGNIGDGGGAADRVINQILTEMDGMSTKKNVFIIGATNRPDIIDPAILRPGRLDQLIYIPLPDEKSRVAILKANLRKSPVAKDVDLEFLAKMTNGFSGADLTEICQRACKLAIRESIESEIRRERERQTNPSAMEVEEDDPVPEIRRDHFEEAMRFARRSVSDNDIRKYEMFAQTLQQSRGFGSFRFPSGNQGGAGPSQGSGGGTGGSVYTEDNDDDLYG", "assay": "ATPase activity assay, recombinant p97 WT", "format": "biochemical"}, "p97 A530T [2]": {"biological_target": "T2, p97 A530T (Homo sapiens, UniProt P55072, A530T)", "T2 sequence (P55072 whole entry A530T)": "as the sequence (P55072 whole entry) above, with A530T counted along it", "assay": "ATPase activity assay, recombinant p97 A530T", "format": "biochemical"}, "p97 A530T [3]": {"biological_target": "T2, p97 A530T", "assay": "TR-FRET binding assay", "conditions": "for increase in apparent Kd for A530T: A530T versus WT"}, "p97 WT [4]": {"biological_target": "T1, p97 WT", "assay": "TR-FRET binding assay"}, "[5]": {"system": "HCT116 873-R and 873-S cells", "assay": "Cell viability", "format": "cell-based"}, "[6]": {"system": "HCT116 cells engineered with p97 A530T", "assay": "Cell viability", "format": "cell-based", "conditions": "homozygous A530T"}, "[7]": {"biological_target": "T3, p97 complexes in HCT116 cells (Homo sapiens, UniProt P55072)", "assay": "Immunoblot of p97 immunoprecipitated from inhibitor-treated cells", "format": "cell-based", "conditions": "for increase in UFD1/NPL4 binding to p97 relative to control: inhibitor concentrations causing similar CHOP and ATF4 induction"}, "[8]": {"system": "CHOP, ATF4 and polyubiquitin in HCT116 cells", "assay": "Immunoblot of biomarkers of p97 inhibition", "format": "cell-based", "conditions": "6 hours"}, "[9]": {"biological_target": "T3, p97 complexes in HCT116 cells", "assay": "LC-MS/MS analysis of p97 complexes purified from inhibitor-treated cells", "format": "cell-based", "conditions": "HCT116, 5 µM NMS-873, 6 hours, LC-MS/MS spectrum count"}, "[10]": {"conditions": "HCT116, 1 hour, concentration dependent, immunoblot"}, "[11]": {"conditions": "HCT116, after washout of 5 µM NMS-873 (120 minutes)"}}, "note": "Read-outs that look alike come from different tables or passages of the source."}
{"molecule": "Nc1ncnc2c1ncn2[C@@H]1O[C@H](COP(=O)(O)OP(=O)(O)O)[C@@H](O)[C@H]1O", "note": "[ADP]", "values": [{"measurement": "fold less sensitive to ADP than ATP-γ-S", "setting": "p97 WT [1]; WT ATPase activity", "value": 18, "unit": "fold"}, {"measurement": "IC50", "setting": "p97 WT [1]; read-out: IC50 ATPase activity, WT p97", "value": 4500, "unit": "nM"}, {"measurement": "fold less sensitive to ADP than ATP-γ-S", "setting": "p97 A530T [2]; A530T ATPase activity", "value": 3.7, "unit": "fold"}, {"measurement": "IC50", "setting": "p97 A530T [2]; read-out: IC50 ATPase activity, A530T p97", "value": 24600, "unit": "nM"}, {"measurement": "increase in apparent Kd for A530T", "setting": "p97 A530T [3]", "value": "5- to 6 fold"}, {"measurement": "Kd", "setting": "p97 A530T [3]; read-out: apparent Kd, A530T p97, TR-FRET", "value": 3800, "unit": "nM"}, {"measurement": "Kd", "setting": "p97 WT [4]; read-out: apparent Kd, WT p97, TR-FRET, non-linear regression", "value": 600, "unit": "nM"}]}
{"molecule": "Nc1ncnc2c1ncn2[C@@H]1O[C@H](CO[P@](=O)(O)O[P@](=O)(O)O[P@@](=O)(O)S)[C@@H](O)[C@H]1O", "note": "[ATP-γ-S]", "values": [{"measurement": "IC50", "setting": "p97 WT [1]", "value": 247, "unit": "nM"}, {"measurement": "IC50", "setting": "p97 A530T [2]", "value": 6600, "unit": "nM"}, {"measurement": "Kd", "setting": "p97 A530T [3]", "value": 140, "unit": "nM"}, {"measurement": "increase in apparent Kd for A530T", "setting": "p97 A530T [3]", "value": "5- to 6 fold"}, {"measurement": "Kd", "setting": "p97 WT [4]", "value": 25, "unit": "nM"}]}
{"molecule": "Cc1cc2c(C(N)=O)cccc2n1-c1nc2c(c(NCc3ccccc3)n1)COCC2", "note": "[CB-5083]", "values": [{"measurement": "sensitivity of 873-R compared with 873-S cells", "setting": "[5]", "value": "similarly sensitive"}, {"measurement": "sensitivity of engineered A530T cells", "setting": "[6]", "value": "remained sensitive"}]}
{"molecule": "c1ccc(CNc2nc(NCc3ccccc3)c3ccccc3n2)cc1", "note": "[DBeQ]", "values": [{"measurement": "increase in UFD1/NPL4 binding to p97 relative to control", "setting": "[7]; HCT116, 1 hour", "value": "up to 2.1 fold"}, {"measurement": "sensitivity of 873-R compared with 873-S cells", "setting": "[5]", "value": "similarly sensitive"}]}
{"molecule": "O[C@@H](CS)[C@@H](O)CS", "note": "[DTT]", "values": [{"measurement": "sensitivity of 873-R compared with 873-S cells", "setting": "[5]", "value": "similarly sensitive"}]}
{"molecule": "CC1(C)C(N(O)C(=O)Nc2ccc(Cl)cc2)N(c2ccc(Cl)cc2)C(=O)N1CC(=O)N/N=C/C=C/c1ccc([N+](=O)[O-])o1", "note": "(stereo not drawn) [EerI, Eeyarestatin I]", "values": [{"measurement": "increase in UFD1/NPL4 binding to p97 relative to control", "setting": "[7]; HCT116, 1 hour", "value": "up to 2.1 fold"}, {"measurement": "sensitivity of 873-R compared with 873-S cells", "setting": "[5]", "value": "similarly sensitive"}]}
{"molecule": "Cc1cc(OCc2nnc(SC3CCCC3)n2-c2cccnc2)ccc1-c1ccc(S(C)(=O)=O)cc1", "note": "[NMS-873]", "values": [{"measurement": "increase in UFD1 and NPL4 bound to p97", "setting": "[7]; [10]", "value": "12- to 15 fold"}, {"measurement": "increase in p47 bound to p97", "setting": "[7]; [10]", "value": 2.5, "unit": "fold"}, {"measurement": "t1/2 of decrease of NPL4 binding to p97 during recovery", "setting": "[7]; [11]", "value": 17, "unit": "min"}, {"measurement": "t1/2 of decrease of UFD1 binding to p97 during recovery", "setting": "[7]; [11]", "value": 13, "unit": "min"}, {"measurement": "induction of CHOP, ATF4 and polyubiquitin in 873-R compared with 873-S cells", "setting": "[8]; NMS-873 2 and 5 µM, CB-5083 0.3 and 2.5 µM", "value": "diminished responses"}, {"measurement": "induction of CHOP, ATF4 and polyubiquitin in engineered A530T cells", "setting": "[8]; HDR cells homozygous for A530T", "value": "diminished induction"}, {"measurement": "increase in ubiquitin bound to p97", "setting": "[9]", "value": 15, "unit": "fold"}]}
{"molecule": "CC(C)C[C@H](NC(=O)[C@H](Cc1ccccc1)NC(=O)c1cnccn1)B(O)O", "note": "[bortezomib]", "values": [{"measurement": "sensitivity of 873-R compared with 873-S cells", "setting": "[5]", "value": "similarly sensitive"}]}
{"molecule": "C[C@H]1CCC/C=C/[C@@H]2C[C@H](O)C[C@H]2[C@H](O)/C=C/C(=O)O1", "note": "[brefeldin A]", "values": [{"measurement": "sensitivity of 873-R compared with 873-S cells", "setting": "[5]", "value": "similarly sensitive"}]}
{"molecule": "CC(C)C[C@H](NC(=O)[C@H](CCc1ccccc1)NC(=O)CN1CCOCC1)C(=O)N[C@@H](Cc1ccccc1)C(=O)N[C@@H](CC(C)C)C(=O)[C@@]1(C)CO1", "note": "[carfilzomib]", "values": [{"measurement": "sensitivity of 873-R compared with 873-S cells", "setting": "[5]", "value": "similarly sensitive"}]}
{"molecule": "NMS-859", "values": [{"measurement": "increase in UFD1/NPL4 binding to p97 relative to control", "setting": "[7]; HCT116, 1 hour", "value": "up to 2.1 fold"}, {"measurement": "sensitivity of 873-R compared with 873-S cells", "setting": "[5]", "value": "similarly sensitive"}]}
{"molecule": "tunicamycin", "values": [{"measurement": "sensitivity of 873-R compared with 873-S cells", "setting": "[5]", "value": "similarly sensitive"}]}
{"molecule": "B1", "values": [{"measurement": "cofactor concentration of maximum inhibition of ATPase activity", "setting": "p97 WT [1]; WT p97, biphasic response, recovery at 200 nM", "value": 3.1, "unit": "nM"}]}
